# Assay results: US20210231678A1, “ALLERGY ANTIGEN AND EPITOPE THEREOF” (FUJITA ACADEMY, priority 2020, published 2021)
# What was measured:
# [1] = test system: IgE antibody present in the serum of a patient (latex-allergic); assay: Latex epitope mapping (2) overlapping 10-residue peptides and (3) alanine/glycine scanning on peptide arrays; assay type: binding, human; conditions: for epitope sequence grade for binding to IgE antibody: serum of latex-allergic patient P17; for confirmed as epitope binding to IgE antibodies: short partial sequences of the 15-residue epitopes
# Procedure: On the basis of the sequences (SEQ ID NOs: 5, 25, 35, 68 and 83) of the peptides bound to an IgE antibody in serum in a patient-specific manner as described above in (A), a library of overlapping peptide fragments (length: 10 amino acids) was prepared using the sequences of the peptides and sequences in which sequences were added so as to flank each peptide in the amino acid sequences of allergy components comprising the sequences of the peptide. Epitope mapping was carried out using the library.
# The peptides to be synthesized were shifted by one amino acid.
# The library was prepared by the same procedure as described above in (A), and the presence or absence of binding of an IgE antibody present in the serum of a patient to each peptide fragment was measured by the same technique as described above. Numeric values determined from images obtained as a result of carrying out only the procedures (1) and (4) to (6) described above in the subsection titled (3) Spotting of cellulose-bound peptide solution were used as control values. The control value of each peptide was subtracted from numeric values determined from images obtained from results about the serum of patients, and the obtained value of the difference was compared with values of the peptides serving as the basis of overlapping.
# Chemiluminescence intensity in images obtained by measurement was converted into a numeric value in the same manner as in (A). Numeric values determined from images obtained as a result of carrying out only the procedures (1) and (4) to (6) described above in the subsection titled (3) Spotting of cellulose-bound peptide solution (secondary antibody measurement values) were used as control values. The control value of each peptide was subtracted from numeric values determined from images obtained from results about the serum of patients. When values obtained using the sequences (SEQ ID NOs: 5, 25, 35, 68 and 83) serving as the basis of overlapping were defined as 100%, it was determined that: a peptide having a value of the difference that was less than 30% had no binding activity against IgE antibodies; a peptide having a value of the difference that was 30% or more and less than 50% had binding activity, albeit poor, against IgE antibodies; a peptide having a value of the difference that was 50% or more and less than 70% had binding activity, albeit somewhat poor, against IgE antibodies; and a peptide having a value of the difference that was 70% or more had equivalent or good binding activity against IgE antibodies and was thus a peptide had remaining binding activity against IgE antibodies.
# From the amino acid sequences identified above in (A), a library of peptide fragments in which amino-terminal amino acids were substituted one by one by alanine (or glycine when the original amino acid was alanine) according to a technique called alanine/glycine scanning (Non Patent Literature 5) was prepared by the same technique as described above. The presence or absence of binding of an IgE antibody present in the serum of a patient to each peptide fragment was measured by the same technique as described above.
# Chemiluminescence intensity in images obtained by measurement was converted into a numeric value in the same manner as in (A). Numeric values determined from images obtained from secondary antibody measurement values were used as control values. The control value of each peptide was subtracted from numeric values determined from images obtained from results about the serum of 17 patients (patient Nos. P1-P17). […]
# [2] = test system: IgE antibody present in the serum of a latex-allergic patient; assay: Latex epitope mapping (1): array of overlapping 15-amino-acid peptides; assay type: binding, human; conditions: 15-residue peptides; serum of 17 latex-allergic patients; chemiluminescence difference from N2nd value of at least 35,000 = bound
# Procedure: Epitope mapping was carried out using a library of overlapping peptides (length: 15 amino acids) corresponding to the amino acid sequences identified as allergy components of latex. Specifically, the library of overlapping peptides was prepared on the basis of the amino acid sequences of SEQ ID NOs: 2 and 4.
# The peptides to be synthesized were shifted by 10 amino acids.
# For preparation of peptide arrays, the Intavis CelluSpots™ technique was used. Specifically, the peptide arrays were prepared by the following procedure: (1) synthesizing peptides of interest on amino-modified cellulose disks using an automated chemical synthesis apparatus (Intavis MultiPep RS), (2) dissolving the amino-modified cellulose disks to obtain a cellulose-bound peptide solution, and (3) spotting the cellulose-bound peptides onto coated glass slides. The details of each procedure are as described below.
# The presence or absence of binding, to each peptide fragment, of an IgE antibody present in the serum of a latex-allergic patient was measured through antigen-antibody reaction using the peptide arrays. The measurement was carried out according to the following procedure.
# (1) The peptides were shaken at room temperature for 1 hour in Pierce Protein-Free (PBS) Blocking Buffer (produced by Thermo Fisher Scientific). (2) The peptide arrays were shaken at overnight at 4° C. in 2% serum/Pierce Protein-Free (PBS) Blocking Buffer (produced by Thermo Fisher Scientific). (3) The peptide arrays were washed with PBST (a PBS buffer containing […] Tween 20 nonionic surfactant) for 5 minutes (×3). (4) Anti-human IgE antibody-HRP (1:20,000, Pierce Protein-Free (PBS) Blocking Buffer (produced by Thermo Fisher Scientific)) was added thereto, and the peptide arrays were shaken at room temperature for 1 hour. (5) The peptide arrays were washed with PBST for 5 minutes (×3). (6) Pierce ECL Plus Western Blotting Substrate (produced by Thermo Fisher Scientific) was added thereto, and the peptide arrays were shaken at room temperature for 5 minutes. (7) The chemiluminescence of the peptides treated as described above in (1) to (6) was measured using Amersham Imager 600.
# Chemiluminescence intensity in images obtained by the measurement described above in (7) was converted into a numeric value using ImageQuant TL (GE Healthcare). The second highest value among numeric values determined from images obtained from results about the serum of 4 non-latex-allergic subjects was defined as the N2nd value. The N2nd value of each peptide was subtracted from numeric values determined from images obtained from results about the serum of 17 patients (17 latex-allergic patients; respectively given patient Nos. P1-P17). It was determined that a peptide having a value of at least 35,000 as the difference was a peptide bound to an IgE antibody in a patient-specific manner.
substance,measurement,setting,value
117 (SKFYD; epitope) [compound 117],epitope sequence grade for binding to IgE antibody,[1],Key
118 (YDDKNGYSSS; epitope) [compound 118],epitope sequence grade for binding to IgE antibody,[1],Preferably
119 (DKNGYSSS; epitope) [compound 119],epitope sequence grade for binding to IgE antibody,[1],Key
DLKSYKSNSVATDIY (epitope) [SEQ ID NO: 35],patient-specific binding of IgE antibody to peptide,[2],confirmed to bind
KPLN (epitope) [SEQ ID NO: 30],confirmed as epitope binding to IgE antibodies,[1],confirmed as epitopes binding to IgE antibodies
KPYDKPLNDRYSYKN (epitope) [SEQ ID NO: 25],patient-specific binding of IgE antibody to peptide,[2],confirmed to bind
KVGK (epitope) [SEQ ID NO: 78],confirmed as epitope binding to IgE antibodies,[1],confirmed as epitopes binding to IgE antibodies
PLTEDNFVIQKPYDK (epitope) [SEQ ID NO: 5],patient-specific binding of IgE antibody to peptide,[2],confirmed to bind
QKPY (epitope) [SEQ ID NO: 6],confirmed as epitope binding to IgE antibodies,[1],confirmed as epitopes binding to IgE antibodies
VNVIHKVGKGEITVF (epitope) [SEQ ID NO: 68],patient-specific binding of IgE antibody to peptide,[2],confirmed to bind
WSKFYDDKNGYSSSI (epitope) [SEQ ID NO: 83],patient-specific binding of IgE antibody to peptide,[2],confirmed to bind
